{
  "source": "patent US20240158448A1",
  "about": "“MULTIVALENT NANO-'SELF' PEPTIDES AND USES THEREOF” (THE TRUSTEES OF THE UNIVERSITY OF PENNSYLVANIA, priority 2021, published 2024)",
  "key": {"[1]": {"test_system": "human macrophages (opsonized K562 cancer cells)", "assay": "Phagocytosis of opsonized K562 erythroleukemia cells by human macrophages", "type": "cell-based", "method": "In vitro phagocytosis assay. Fresh human RBCs were washed twice with 50 mM EDTA (Thermo Fischer) in PBS (Gibco) then twice with 5% FBS in PBS. RBCs were opsonized with 20 μg/mL rabbit anti-human RBC antibody (Rockland) in 5% FBS for 1 hour at RT with shaking. For CD47 blocked RBCs, 5 μg/mL of mouse anti-human CD47 (B6H12; BD Biosciences) were added. Thereafter, RBCs were washed with PBS three times and stained with PKH26 dye (1:800 dilution in PBS; Sigma) for 1 hour at RT with shaking in the dark. RBCs were washed and resuspended in PBS.\nTHP-1 monocytes were PMA differentiated in RPMI for 48 hours. Macrophages were then washed with RPMI media three times. For SIRPα blocked THP-1 macrophages, 20 nM, 1 μM or 50 μM of the nano—Self peptides were incubated with the THP-1 macrophages for 1 hour at 37 ° C., 5% CO2 and 95% humidity. Those THP-Is were then washed with RPMI three times.\nCO2 and 95% humidity. Macrophages were then washed with RPMI three times. Adherent and uninternalized RBCs were lysed with water for 30 seconds followed by immediate replacement with RPMI media. In order to distinguish remaining adherent RBCs from internalized RBCs, opsonized RBCs were stained with AlexaFluor 647 donkey anti-rabbit (binds to rabbit polyclonal opsonin on RBC; Invitrogen) IgG (1:1000) while unopsonized, CD47 blocked RBCs were stained with AlexaFluor 647 donkey anti-mouse (binds to mouse monoclonal anti-CD47 on RBCs; Invitrogen) IgG (1:1000) for 30 minutes. After washing, macrophages were fixed with 4% formaldehyde for 15 minutes at RT, washed with PBS, stained with 1 μg/mL Hoechst 33342, and then washed with PBS again. Fluorescence imaging was performed as described elsewhere herein and quantification was done using ImageJ. At least 200 cells were analyzed and experiments were repeated at least three times.\nThe anti-RBC successfully opsonized and triggered phagocytosis of K562 cells by macrophages (FIGS. 2A, 2F and 2E). […] Interaction of the nS peptides with K562 cells is likely minimal due to the relative lack of SIRPα expression. […] For both opsonized RBCs and opsonized K562s (FIGS. 2D, 2F), the hyperphagocytosis that is achieved with soluble F- and V-nS peptides matches the recently measured increases for disruption of both (i) the trans interactions between CD47 on a target and macrophage SIRPα and also, importantly, (ii) the cis interactions between CD47 and SIRPα on the same macrophage (FIG. 2G-left). Expression profiling of macrophages confirms these cells generally express CD47 at roughly similar levels to other cell types (FIG. 15). […] A preliminary conclusion is that nS-FF and the other substituted peptides, which were designed to bind SIRPα, inhibit both the cis and trans interactions between SIRPα and CD47 ([…])."}, "[2]": {"test_system": "THP-1 macrophages", "assay": "Peptide inhibition assay (competition with FAM-labeled nS-F on THP-1 macrophages)", "type": "binding, human", "details": "pre-treatment with unlabeled peptide", "method": "Peptide inhibition assay. THP-1 monocytes were PMA differentiated in RPMI for 48 hours. […] To measure background internalization of the FAM-labeled peptides, nS-X-FAM was used. To determine the efficacy of the bivalent peptides to inhibit SIRPα binding, nS-X was used. Excess peptides were washed off with PBS and cells were fixed with 4% formaldehyde for 15 minutes at RT, washed with PBS, stained with 1 μg/mL Hoechst 33342, and then washed with PBS again. Fluorescence imaging was performed as described elsewhere herein and quantification was done using ImageJ."}, "[3]": {"target": "T1, soluble human SIRPα (Homo sapiens, UniProt P78324)", "T1 construct": "Soluble human SIRPα fused with glutathione s-transferase (SIRPα-GST); GST (glutathione S-transferase); made in house", "T1 sequence (P78324 31-373 limits assumed)": "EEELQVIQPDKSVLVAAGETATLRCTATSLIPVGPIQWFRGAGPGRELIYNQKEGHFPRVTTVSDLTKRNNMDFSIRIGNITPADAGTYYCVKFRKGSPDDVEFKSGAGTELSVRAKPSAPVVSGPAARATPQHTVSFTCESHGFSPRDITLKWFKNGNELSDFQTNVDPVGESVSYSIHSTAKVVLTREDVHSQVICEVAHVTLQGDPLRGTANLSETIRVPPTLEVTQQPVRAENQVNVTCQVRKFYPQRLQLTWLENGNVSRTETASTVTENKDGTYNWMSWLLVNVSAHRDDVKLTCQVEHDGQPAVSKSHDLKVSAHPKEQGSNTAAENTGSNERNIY", "assay": "Binding of biotinylated peptides on streptavidin beads to soluble SIRPα", "description": "SIRPα Expression and Purification. Soluble human SIRPα fused with glutathione s-transferase (SIRPα-GST) was expressed and purified as previously published (Tsai, et al., 2008, J. Cell Biol. 180:989-1003).\nPeptide biotinylation: NHS-biotin (Thermo Fischer) was mixed with nS-wt and nS-V, respectively, following the manufacturer's protocol. The biotinylated peptides were dialyzed against PBS.\nStreptavidin-beads binding: Streptavidin-coated polystyrene beads of 2.1 μm radius (Spherotech) were washed and blocked 3x in PBS plus 0.4% BSA. nS-wt-biotin or nS-V-biotin were incubated with the beads for 1 hour at room temperature with shaking. Beads were washed with PBS, then incubated with recombinant SIRPα for 1 hour in ice. Streptavidin beads were labeled with rabbit anti-streptavidin-FITC (Invitrogen) and SIRPα was stained with mouse anti-SIRPα-allophycocyanin (anti-SIRPα-APC; Invitrogen)."}},
  "note": "Entries after “also recorded” stand apart in the source; their conditions may differ. Non-standard residues stand in square brackets, D forms with d. Primed or numbered codes have the meaning given here. No end group written: not given here. PEG5′ = linker of 5 PEG units between residues",
  "data": [
    {"substance": "(VTELFREG-PEG5)2-K (VTELFREG[PEG5′]K[PEG5′]GERFLETV; not fully specified; also: bivalent lysine core) [nS-FF, bivalent nS-F linked through PEG5 linkers to a C-terminal Lys]", "values": [
      {"measurement": "increase of phagocytosis relative to opsonized and CD47 blocked K562 cells", "setting": "[1]; saturating peptide", "result": "nearly doubled; also recorded: about two-fold"},
      {"measurement": "macrophages engulfing opsonized K562 cells at saturation", "setting": "[1]; saturation", "result": "~40", "unit": "%"},
      {"measurement": "inhibition of monovalent nS-F-FAM binding to macrophages", "setting": "[2]", "result": "further decreased"}
    ]},
    {"substance": "VTELTREG [nS-wt, 8-amino acid wild type nano-Self peptide from the CD47 loop, C-terminal amide]", "values": [
      {"measurement": "SIRPα binding to peptide-coated beads", "setting": "[3]", "result": "fluorescence is only observed in the presence of biotinylated peptide"}
    ]}
  ]
}
